Assay results: patent publication US11690837B2, “Methods of improving cell-based therapy” (THE REGENTS OF THE UNIVERSITY OF CALIFORNIA, priority 2014, dated 2023)

Legend:
sEH = molecular target: T1, sEH (Homo sapiens, UniProt P34913); assay: Testing as sEH inhibitors (method not described); assay type: biochemical
T1 sequence (P34913 1-555): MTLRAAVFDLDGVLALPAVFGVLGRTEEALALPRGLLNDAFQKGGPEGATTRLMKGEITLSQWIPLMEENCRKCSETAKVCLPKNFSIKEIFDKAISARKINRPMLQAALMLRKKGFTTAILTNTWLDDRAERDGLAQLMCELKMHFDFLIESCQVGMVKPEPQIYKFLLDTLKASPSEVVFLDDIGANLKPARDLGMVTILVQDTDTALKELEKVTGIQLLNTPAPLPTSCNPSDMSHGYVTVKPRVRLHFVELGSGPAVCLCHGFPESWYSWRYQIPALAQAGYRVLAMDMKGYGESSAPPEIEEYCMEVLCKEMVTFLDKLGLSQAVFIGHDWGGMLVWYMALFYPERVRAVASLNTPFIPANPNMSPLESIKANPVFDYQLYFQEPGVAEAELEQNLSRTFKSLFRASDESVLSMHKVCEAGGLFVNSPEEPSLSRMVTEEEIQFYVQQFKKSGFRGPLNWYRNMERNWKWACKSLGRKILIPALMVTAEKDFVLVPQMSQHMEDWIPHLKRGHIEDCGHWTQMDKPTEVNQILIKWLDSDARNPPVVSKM
Description: (§1) (Both the 1- and the 2-admamantyl ureas have been tested and have about the same high activity as an inhibitor of sEH. Thus, isomers of adamantyl dodecyl urea are preferred inhibitors. It is further expected that N, N′-dodecyl-cyclohexyl urea (DCU), and other inhibitors of sEH, and particularly dodecanoic acid ester derivatives of urea, are suitable for use in the methods. Preferred inhibitors include:
U.S. Pat. No. 5,955,496 (the '496 patent) also sets forth a number of sEH inhibitors which can be used in the methods. One category of these inhibitors comprises inhibitors that mimic the substrate for the enzyme. The lipid alkoxides (e.g., the 9-methoxide of stearic acid) are an exemplar of this group of inhibitors.

[1] = assay type: in vitro ADME
Description: as §1, with “include: […]” for “include:”

activity as an inhibitor of sEH (sEH): particularly high activity | metabolic stability [1]: metabolically stable
SMILES: CCCCCCCCCCCCNC(=O)NC12CC3CC(CC(C3)C1)C2 [ADU, N-Adamantyl-N′-dodecyl urea]
